This passage reports Activity results from ChEMBL document CHEMBL1156243.

Experiment [1] can be described thus: Binding affinity to amyloid beta (1 to 42) fibrils by change in fluorescence at 100 uM after 10 mins.
A short description of experiment [2]: Binding affinity to amyloid beta (1 to 42) oligomers by change in fluorescence at 100 uM after 10 mins.

Calls of active or inactive are those of the source. No rule for the calls is given here.

For `Oc1cc(O)c2c(c1)O[C@H](c1ccc(O)c(O)c1)[C@@H](O)C2`, the result in experiment [1] and in experiment [2] was inactive.

For the compound `O=c1c(O)c(-c2ccc(O)cc2)oc2cc(O)cc(O)c12`, the outcome in experiment [1] and in experiment [2] was inactive.

For `O=C(O)c1cc(/N=N/c2ccc(-c3ccc(/N=N/c4ccc(O)c(C(=O)O)c4)cc3)cc2)ccc1O`, the result in experiment [1] and in experiment [2] was inactive.

For `CN(C)[C@@H]1C(O)=C(C(=O)NCN2CCCC2)C(=O)[C@@]2(O)C(O)=C3C(=O)c4c(O)cccc4[C@@](C)(O)[C@H]3C[C@@H]12`, the result in experiment [1] and in experiment [2] was inactive.

`COc1cc(/C=C/C(=O)NCCNC(=O)/C=C/c2ccc(O)c(OC)c2)ccc1O`: the outcome in experiment [1] and in experiment [2] was inactive.

As to `O=C1C[C@@H](c2ccc(O)cc2)Oc2cc(O)cc(O)c21`, the result in experiment [1] and in experiment [2] was inactive.

On to `COc1ccc(C=O)cc1`, for which the outcome in experiment [1] and in experiment [2] was inactive.

Regarding `CNc1ccc2nc3ccc(N)cc3[s+]c2c1`, the outcome in experiment [1] and in experiment [2] was inactive.

`CC(=O)c1ccccc1`: the outcome in experiment [1] and in experiment [2] was inactive.

Take `COc1ccc2c(c1)c(CC(=O)O)c(C)n2C(=O)c1ccc(Cl)cc1`: the result in experiment [1] and in experiment [2] was inactive.

Consider `CN(C)c1ccc(O)c2c1C[C@H]1C[C@H]3[C@H](N(C)C)C(O)=C(C(N)=O)C(=O)[C@@]3(O)C(O)=C1C2=O`, for which the outcome in experiment [1] and in experiment [2] was inactive.

`O=c1c(O)c(-c2cc(O)c(O)c(O)c2)oc2cc(O)cc(O)c12`: the outcome in experiment [1] and in experiment [2] was inactive.

Consider `COc1ccc(C=O)cc1OC`, for which the outcome in experiment [1] and in experiment [2] was inactive.

With `O=C(c1ccc(O)cc1)c1ccc(O)cc1`, the result in experiment [1] and in experiment [2] was inactive.

`O=C(c1ccccc1)c1ccccc1`: the result in experiment [1] and in experiment [2] was inactive.

Take `O=C(c1ccccc1)c1ccc(O)c(O)c1O`: the outcome in experiment [1] and in experiment [2] was inactive.

`COc1ccc(/C=C/C(=O)CC(=O)/C=C/c2ccc(OC)c(OC)c2)cc1OC`: the outcome in experiment [1] and in experiment [2] was inactive.

Consider `CN(C)c1ccc(N=Nc2ccccc2)cc1`, for which the result in experiment [1] and in experiment [2] was inactive.

As for `O=C(O)C(=O)Cc1c[nH]c2ccccc12`, the outcome in experiment [1] and in experiment [2] was Active.

On to `O=C1c2ccccc2Cc2ccccc21`, for which the outcome in experiment [1] and in experiment [2] was inactive.

With `O=C(O[C@@H]1Cc2c(O)cc(O)cc2O[C@@H]1c1cc(O)c(O)c(O)c1)c1cc(O)c(O)c(O)c1`, the outcome in experiment [1] and in experiment [2] was inactive.

With `O=c1cc(-c2ccc(O)cc2)oc2cc(O)cc(O)c12`, the outcome in experiment [1] and in experiment [2] was inactive.

`O=C(/C=C/c1cccc(O)c1)c1ccccc1`: the outcome in experiment [1] and in experiment [2] was inactive.

As to `O=C(c1ccccc1O)c1ccccc1O`, the outcome in experiment [1] and in experiment [2] was inactive.

Turning to `Oc1cc(O)c2c(c1)O[C@H](c1ccc(O)c(O)c1)[C@H](O)C2`, the result in experiment [1] and in experiment [2] was inactive.

On to `O=C1C=CC(=O)c2c(O)cccc21`, for which the result in experiment [1] and in experiment [2] was inactive.

For the compound `O=C(O)/C=C/c1cccc(O)c1`, the outcome in experiment [1] and in experiment [2] was inactive.

Take `CN(C)c1ccc(N=Nc2ccc(S(=O)(=O)O)cc2)cc1`: the result in experiment [1] and in experiment [2] was inactive.

On to `O=c1c(-c2ccc(O)cc2)coc2cc(O)cc(O)c12`, for which the result in experiment [1] and in experiment [2] was inactive.

Regarding `CCN(CC)c1ccc2c(-c3ccccc3C(C)=O)c3ccc(=[N+](CC)CC)cc-3oc2c1`, the outcome in experiment [1] and in experiment [2] was Active.

Consider `O=Cc1cccc(O)c1`, for which the result in experiment [1] and in experiment [2] was inactive.

Turning to `O=C(/C=C/c1ccc(O)c(O)c1)O[C@H](Cc1ccc(O)c(O)c1)C(=O)O`, the outcome in experiment [1] and in experiment [2] was inactive.

As to `Nc1ccc(/N=N/c2ccc(-c3ccc(/N=N/c4c(S(=O)(=O)O)cc5cc(S(=O)(=O)O)c(/N=N/c6ccccc6)c(O)c5c4N)cc3)cc2)c(N)c1`, the result in experiment [1] and in experiment [2] was inactive.

On to `O=c1c(O)c(-c2ccc(O)c(O)c2)oc2cc(O)cc(O)c12`, for which the outcome in experiment [1] and in experiment [2] was inactive.

On to `COc1cc(/C=C/C(=O)NCCCCNC(=O)/C=C/c2ccc(O)c(OC)c2)ccc1O`, for which the outcome in experiment [1] and in experiment [2] was inactive.

Turning to `O=Cc1c[nH]c2ccccc12`, the outcome in experiment [1] and in experiment [2] was inactive.

For `Nc1c(/N=N/c2ccc(-c3ccc(/N=N/c4cc(S(=O)(=O)O)c5ccccc5c4N)cc3)cc2)cc(S(=O)(=O)O)c2ccccc12`, the result in experiment [1] and in experiment [2] was Active.

With `NCCc1c[nH]c2ccccc12`, the result in experiment [1] and in experiment [2] was Active.

In the case of `COc1ccc(C(=O)c2cc(OC)cc(OC)c2)cc1`, the result in experiment [1] and in experiment [2] was inactive.

In the case of `COc1cc(/C=C/C(=O)O)ccc1O`, the outcome in experiment [1] and in experiment [2] was Active.

In the case of `CN(C)c1ccc(N=Nc2ccccc2C(=O)O)cc1`, the outcome in experiment [1] and in experiment [2] was inactive.

Regarding `NCCc1ccc(O)c(O)c1`, the outcome in experiment [1] and in experiment [2] was inactive.

As for `O=C1C=Cc2ccccc2C1=O`, the result in experiment [1] and in experiment [2] was Active.

Take `COc1ccc(/C=C/c2ccc(/C=C/c3ccc(OC)c(OCc4ccccc4)c3)c(Br)c2)cc1OCc1ccccc1`: the result in experiment [1] and in experiment [2] was Active.

In the case of `O=C1c2c(O)cc(O)cc2O[C@H](c2ccc(O)c(O)c2)[C@H]1O`, the result in experiment [1] and in experiment [2] was inactive.

As for `O=c1cc2oc3cc(O)c(-c4ccc(O)cc4O)cc3nc-2cc1-c1ccc(O)cc1O`, the result in experiment [1] and in experiment [2] was inactive.

As for `O=S1(=O)OC(c2ccc(O)cc2)(c2ccc(O)cc2)c2ccccc21`, the result in experiment [1] and in experiment [2] was inactive.

Consider `COc1ccc(/C=C/c2cc(OC)cc(OC)c2)cc1`, for which the outcome in experiment [1] and in experiment [2] was inactive.
